From the kinase profiling compilation of Christmann-Franck et al. (2016)

Legend:
Experiment in all cases: KINOMEscan competition binding
Details in all cases: compound 10.0 µM
BTK (human) = BTK (human) (UniProt Q06187)
CASK (human) = CASK (human) (UniProt O14936)
CDK2 (human) = CDK2 (human) (UniProt P24941)
CDKL5 (human) = CDKL5 (human) (UniProt O76039)
[1] = tested on: EGFR (human), P00533 [L861Q]
[2] = tested on: EGFR (human), P00533 [P753S; 747-752 del]
EIF2AK1 (human) = EIF2AK1 (human) (UniProt Q9BQI3)
EPHB6 (human) = EPHB6 (human) (UniProt O15197)
GRK1 (human) = GRK1 (human) (UniProt Q15835)
GRK4 (human) = GRK4 (human) (UniProt P32298)
HIPK2 (human) = HIPK2 (human) (UniProt Q9H2X6)
HIPK3 (human) = HIPK3 (human) (UniProt Q9H422)
HUNK (human) = HUNK (human) (UniProt P57058)
IRAK1 (human) = IRAK1 (human) (UniProt P51617)
IRAK4 (human) = IRAK4 (human) (UniProt Q9NWZ3)
[3] = tested on: KIT (human), P10721 [V559D/T670I]
LRRK2 (human) = LRRK2 (human) (UniProt Q5S007)
MAP2K5 (human) = MAP2K5 (human) (UniProt Q13163)
MAP3K1 (human) = MAP3K1 (human) (UniProt Q13233)
MAP3K15 (human) = MAP3K15 (human) (UniProt Q6ZN16)
MAP3K2 (human) = MAP3K2 (human) (UniProt Q9Y2U5)
MATK (human) = MATK (human) (UniProt P42679)
MET (human) = MET (human) (UniProt P08581)
MTOR (human) = MTOR (human) (UniProt P42345)
MYLK3 (human) = MYLK3 (human) (UniProt Q32MK0)
NEK11 (human) = NEK11 (human) (UniProt Q8NG66)
NEK4 (human) = NEK4 (human) (UniProt P51957)
[4] = tested on: PIK3CA (human), P42336 [E545A]
[5] = tested on: PIK3CA (human), P42336 [I800L]
PKN3 (M.tuberculosis) = PKN3 (M.tuberculosis) (UniProt Q6P5Z2)
PLK2 (human) = PLK2 (human) (UniProt Q9NYY3)
PRPF4B (human) = PRPF4B (human) (UniProt Q13523)
ROCK1 (human) = ROCK1 (human) (UniProt Q13464)
SIK3 (human) = SIK3 (human) (UniProt Q9Y2K2)
SNRK (human) = SNRK (human) (UniProt Q9NRH2)
STK38 (human) = STK38 (human) (UniProt Q15208)
TAOK2 (human) = TAOK2 (human) (UniProt Q9UL54)
TBK1 (human) = TBK1 (human) (UniProt Q9UHD2)
TRPM6 (human) = TRPM6 (human) (UniProt Q9BX84)
VRK2 (human) = VRK2 (human) (UniProt Q86Y07)

Sequence of HUNK (human) (P57058 whole entry, looked up): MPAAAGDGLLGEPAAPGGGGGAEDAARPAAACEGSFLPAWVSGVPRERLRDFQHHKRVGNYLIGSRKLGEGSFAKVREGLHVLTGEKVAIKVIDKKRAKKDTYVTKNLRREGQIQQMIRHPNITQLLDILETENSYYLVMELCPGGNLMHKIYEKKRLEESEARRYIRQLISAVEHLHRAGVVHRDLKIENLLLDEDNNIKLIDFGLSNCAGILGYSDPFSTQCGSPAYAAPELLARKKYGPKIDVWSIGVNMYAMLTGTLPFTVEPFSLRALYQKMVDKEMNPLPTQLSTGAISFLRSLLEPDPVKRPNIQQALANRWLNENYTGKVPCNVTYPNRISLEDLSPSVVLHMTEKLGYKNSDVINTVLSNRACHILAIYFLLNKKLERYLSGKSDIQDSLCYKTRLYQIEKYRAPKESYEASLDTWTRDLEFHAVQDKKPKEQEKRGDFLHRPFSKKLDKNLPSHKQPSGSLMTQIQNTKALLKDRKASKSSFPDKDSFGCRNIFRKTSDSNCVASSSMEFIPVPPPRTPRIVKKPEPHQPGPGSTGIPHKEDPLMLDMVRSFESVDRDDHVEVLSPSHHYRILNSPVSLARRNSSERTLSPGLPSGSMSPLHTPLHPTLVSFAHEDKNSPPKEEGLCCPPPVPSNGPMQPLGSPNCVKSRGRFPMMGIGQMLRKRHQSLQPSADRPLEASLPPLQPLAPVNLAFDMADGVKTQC
Sequence of TBK1 (human) (Q9UHD2 whole entry, looked up): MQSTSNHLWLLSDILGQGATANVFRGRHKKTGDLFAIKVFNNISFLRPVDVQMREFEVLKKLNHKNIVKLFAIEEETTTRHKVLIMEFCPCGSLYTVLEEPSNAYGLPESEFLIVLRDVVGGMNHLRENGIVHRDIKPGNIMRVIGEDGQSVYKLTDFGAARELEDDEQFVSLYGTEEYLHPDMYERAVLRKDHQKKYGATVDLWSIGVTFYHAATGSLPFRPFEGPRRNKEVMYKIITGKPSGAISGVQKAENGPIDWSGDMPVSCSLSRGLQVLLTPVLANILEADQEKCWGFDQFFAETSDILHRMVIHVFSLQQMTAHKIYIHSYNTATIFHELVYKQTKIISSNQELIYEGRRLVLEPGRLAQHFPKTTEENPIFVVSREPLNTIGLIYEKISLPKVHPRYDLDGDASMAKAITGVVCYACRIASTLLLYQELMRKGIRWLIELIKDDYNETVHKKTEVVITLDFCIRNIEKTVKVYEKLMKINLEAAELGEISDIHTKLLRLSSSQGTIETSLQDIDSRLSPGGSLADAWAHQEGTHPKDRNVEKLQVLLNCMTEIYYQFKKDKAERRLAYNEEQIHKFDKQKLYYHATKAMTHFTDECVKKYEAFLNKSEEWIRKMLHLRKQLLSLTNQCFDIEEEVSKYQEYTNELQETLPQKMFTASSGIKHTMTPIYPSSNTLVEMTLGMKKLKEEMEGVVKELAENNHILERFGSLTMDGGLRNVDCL
Sequence of MET (human) (P08581 whole entry, looked up): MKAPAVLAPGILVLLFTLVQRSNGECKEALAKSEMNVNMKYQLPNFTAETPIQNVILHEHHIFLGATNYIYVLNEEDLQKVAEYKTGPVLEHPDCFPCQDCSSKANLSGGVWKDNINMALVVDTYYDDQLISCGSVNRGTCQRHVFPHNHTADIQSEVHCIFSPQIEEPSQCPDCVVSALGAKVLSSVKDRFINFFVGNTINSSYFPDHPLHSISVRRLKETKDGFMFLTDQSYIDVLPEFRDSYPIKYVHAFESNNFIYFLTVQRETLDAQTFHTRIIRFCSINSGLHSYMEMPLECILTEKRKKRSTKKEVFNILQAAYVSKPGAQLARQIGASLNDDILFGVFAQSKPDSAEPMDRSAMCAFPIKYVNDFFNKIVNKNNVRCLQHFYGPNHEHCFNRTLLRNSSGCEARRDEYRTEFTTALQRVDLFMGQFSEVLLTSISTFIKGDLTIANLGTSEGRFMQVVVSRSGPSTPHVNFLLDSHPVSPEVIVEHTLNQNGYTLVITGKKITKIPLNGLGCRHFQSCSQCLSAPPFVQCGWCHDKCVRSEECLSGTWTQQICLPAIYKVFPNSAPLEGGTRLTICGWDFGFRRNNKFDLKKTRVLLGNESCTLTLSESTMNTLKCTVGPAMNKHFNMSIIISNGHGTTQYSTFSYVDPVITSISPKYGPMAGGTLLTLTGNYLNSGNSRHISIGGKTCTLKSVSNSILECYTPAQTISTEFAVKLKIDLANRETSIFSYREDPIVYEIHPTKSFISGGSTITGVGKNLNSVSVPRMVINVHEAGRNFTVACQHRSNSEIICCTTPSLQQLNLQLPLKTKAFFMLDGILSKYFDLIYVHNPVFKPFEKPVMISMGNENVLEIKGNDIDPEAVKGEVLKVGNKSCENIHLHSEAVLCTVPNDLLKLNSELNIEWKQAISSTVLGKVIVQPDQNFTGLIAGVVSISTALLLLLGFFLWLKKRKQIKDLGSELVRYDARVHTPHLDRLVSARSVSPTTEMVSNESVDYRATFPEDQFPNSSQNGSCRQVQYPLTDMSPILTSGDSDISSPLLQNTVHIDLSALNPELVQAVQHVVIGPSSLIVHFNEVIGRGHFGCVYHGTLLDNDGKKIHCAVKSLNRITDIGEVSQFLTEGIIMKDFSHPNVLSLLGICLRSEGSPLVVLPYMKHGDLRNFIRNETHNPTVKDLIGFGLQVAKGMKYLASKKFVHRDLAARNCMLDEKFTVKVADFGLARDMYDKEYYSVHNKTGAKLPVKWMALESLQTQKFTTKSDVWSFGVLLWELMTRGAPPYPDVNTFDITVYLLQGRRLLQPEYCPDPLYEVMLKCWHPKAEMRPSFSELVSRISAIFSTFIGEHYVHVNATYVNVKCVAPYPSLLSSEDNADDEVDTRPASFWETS
Sequence of MYLK3 (human) (Q32MK0 whole entry, looked up): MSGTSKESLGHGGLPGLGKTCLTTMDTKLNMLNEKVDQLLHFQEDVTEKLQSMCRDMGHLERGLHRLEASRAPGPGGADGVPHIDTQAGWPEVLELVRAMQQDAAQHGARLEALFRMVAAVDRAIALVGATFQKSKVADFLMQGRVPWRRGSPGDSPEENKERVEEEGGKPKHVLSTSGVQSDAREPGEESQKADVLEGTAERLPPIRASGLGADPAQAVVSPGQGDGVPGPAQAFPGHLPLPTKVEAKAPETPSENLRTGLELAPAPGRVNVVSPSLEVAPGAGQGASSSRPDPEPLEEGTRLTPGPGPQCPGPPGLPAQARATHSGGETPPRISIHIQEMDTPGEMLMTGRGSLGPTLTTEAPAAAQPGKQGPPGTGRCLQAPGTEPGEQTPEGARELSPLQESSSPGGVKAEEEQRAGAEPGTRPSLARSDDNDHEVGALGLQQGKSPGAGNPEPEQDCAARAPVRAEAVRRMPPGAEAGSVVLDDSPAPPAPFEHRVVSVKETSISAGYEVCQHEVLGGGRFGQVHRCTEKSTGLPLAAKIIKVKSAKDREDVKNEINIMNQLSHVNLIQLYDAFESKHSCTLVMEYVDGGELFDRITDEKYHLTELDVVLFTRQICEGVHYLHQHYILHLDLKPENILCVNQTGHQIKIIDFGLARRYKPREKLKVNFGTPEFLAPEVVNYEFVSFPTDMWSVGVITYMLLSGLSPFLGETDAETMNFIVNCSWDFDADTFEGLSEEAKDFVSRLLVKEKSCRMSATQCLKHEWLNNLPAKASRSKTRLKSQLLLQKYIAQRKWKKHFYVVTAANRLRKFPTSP
Sequence of ROCK1 (human) (Q13464 whole entry, looked up): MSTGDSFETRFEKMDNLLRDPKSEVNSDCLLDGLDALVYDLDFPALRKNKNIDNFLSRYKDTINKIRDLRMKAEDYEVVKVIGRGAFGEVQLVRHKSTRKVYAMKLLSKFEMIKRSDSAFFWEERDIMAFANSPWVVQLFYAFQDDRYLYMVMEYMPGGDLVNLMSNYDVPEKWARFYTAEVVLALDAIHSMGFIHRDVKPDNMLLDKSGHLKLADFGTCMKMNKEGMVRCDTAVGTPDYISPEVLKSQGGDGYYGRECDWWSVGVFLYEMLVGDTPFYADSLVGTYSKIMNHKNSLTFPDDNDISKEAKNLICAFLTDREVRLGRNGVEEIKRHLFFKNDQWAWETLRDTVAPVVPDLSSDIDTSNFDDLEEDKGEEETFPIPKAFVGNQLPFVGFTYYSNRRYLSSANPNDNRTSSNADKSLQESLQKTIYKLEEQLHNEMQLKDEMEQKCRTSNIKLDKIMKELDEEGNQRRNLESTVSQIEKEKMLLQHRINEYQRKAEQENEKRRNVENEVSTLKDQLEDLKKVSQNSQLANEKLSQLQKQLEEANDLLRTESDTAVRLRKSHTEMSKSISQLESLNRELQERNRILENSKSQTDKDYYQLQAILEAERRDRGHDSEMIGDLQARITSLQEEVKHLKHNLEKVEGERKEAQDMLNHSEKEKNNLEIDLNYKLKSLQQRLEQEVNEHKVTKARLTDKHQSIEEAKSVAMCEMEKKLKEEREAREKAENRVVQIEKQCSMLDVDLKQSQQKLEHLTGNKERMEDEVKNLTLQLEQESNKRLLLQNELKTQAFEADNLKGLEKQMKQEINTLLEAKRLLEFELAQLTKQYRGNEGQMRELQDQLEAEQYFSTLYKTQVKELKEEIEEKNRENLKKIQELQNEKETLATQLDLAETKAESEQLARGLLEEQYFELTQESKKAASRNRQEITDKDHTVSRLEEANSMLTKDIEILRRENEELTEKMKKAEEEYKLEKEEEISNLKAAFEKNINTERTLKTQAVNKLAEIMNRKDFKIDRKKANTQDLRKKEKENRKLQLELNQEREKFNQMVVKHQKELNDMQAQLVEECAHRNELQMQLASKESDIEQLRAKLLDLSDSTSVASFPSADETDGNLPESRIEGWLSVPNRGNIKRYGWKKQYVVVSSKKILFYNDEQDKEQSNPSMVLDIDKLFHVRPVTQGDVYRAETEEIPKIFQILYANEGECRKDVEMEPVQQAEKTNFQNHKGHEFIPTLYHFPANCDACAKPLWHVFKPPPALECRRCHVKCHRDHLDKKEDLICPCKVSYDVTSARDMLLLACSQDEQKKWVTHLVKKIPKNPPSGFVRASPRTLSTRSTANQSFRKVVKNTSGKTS

| SMILES | kinase still bound, per cent of control (BTK (human)) [%] | kinase still bound, per cent of control (CASK (human)) [%] | kinase still bound, per cent of control (CDK2 (human)) [%] | kinase still bound, per cent of control (CDKL5 (human)) [%] | kinase still bound, per cent of control [1] [%] | kinase still bound, per cent of control [2] [%] | kinase still bound, per cent of control (EIF2AK1 (human)) [%] | kinase still bound, per cent of control (EPHB6 (human)) [%] | kinase still bound, per cent of control (GRK1 (human)) [%] | kinase still bound, per cent of control (GRK4 (human)) [%] | kinase still bound, per cent of control (HIPK2 (human)) [%] | kinase still bound, per cent of control (HIPK3 (human)) [%] | kinase still bound, per cent of control (HUNK (human)) [%] | kinase still bound, per cent of control (IRAK1 (human)) [%] | kinase still bound, per cent of control (IRAK4 (human)) [%] | kinase still bound, per cent of control [3] [%] | kinase still bound, per cent of control (LRRK2 (human)) [%] | kinase still bound, per cent of control (MAP2K5 (human)) [%] | kinase still bound, per cent of control (MAP3K1 (human)) [%] | kinase still bound, per cent of control (MAP3K15 (human)) [%] | further results |
| --- | --- | --- | --- | --- | --- | --- | --- | --- | --- | --- | --- | --- | --- | --- | --- | --- | --- | --- | --- | --- | --- |
| CCN1CCN(Cc2ccc(Nc3ncc4c(n3)N(C)c3ccccc3C(=O)N4C)cc2C(F)(F)F)CC1 | 67 | 15 | 68 | 100 | 98 | 79 | 100 | 21 | 78 | 56 | 100 | 76 | 59 | 25 | 100 | 74 | 15 | 35 | 55 | 74 | kinase still bound, per cent of control (MAP3K2 (human)): 0.55%; kinase still bound, per cent of control (MATK (human)): 94%; kinase still bound, per cent of control (MET (human)): 36%; kinase still bound, per cent of control (MTOR (human)): 39%; kinase still bound, per cent of control (MYLK3 (human)): 100%; kinase still bound, per cent of control (NEK11 (human)): 100%; kinase still bound, per cent of control (NEK4 (human)): 80%; kinase still bound, per cent of control [4]: 6.2%; kinase still bound, per cent of control [5]: 12%; kinase still bound, per cent of control (PKN3 (M.tuberculosis)): 22%; kinase still bound, per cent of control (PLK2 (human)): 100%; kinase still bound, per cent of control (PRPF4B (human)): 76%; kinase still bound, per cent of control (ROCK1 (human)): 94%; kinase still bound, per cent of control (SIK3 (human)): 74%; kinase still bound, per cent of control (SNRK (human)): 88%; kinase still bound, per cent of control (STK38 (human)): 95%; kinase still bound, per cent of control (TAOK2 (human)): 0.1%; kinase still bound, per cent of control (TBK1 (human)): 60%; kinase still bound, per cent of control (TRPM6 (human)): 100%; kinase still bound, per cent of control (VRK2 (human)): 100% |
| Cc1ccc(NC(=O)c2cccc(C(C)(C)C#N)c2)cc1Nc1ccc2ncn(C)c(=O)c2c1 | 66 | 96 | 100 | 93 | 34 | 19 | 84 | 2.4 | 100 | 100 | 73 | 86 | 100 | 75 | 83 | 0.35 | 32 | 0.7 | 76 | 100 | kinase still bound, per cent of control (MAP3K2 (human)): 88%; kinase still bound, per cent of control (MATK (human)): 100%; kinase still bound, per cent of control (MET (human)): 89%; kinase still bound, per cent of control (MTOR (human)): 100%; kinase still bound, per cent of control (MYLK3 (human)): 100%; kinase still bound, per cent of control (NEK11 (human)): 94%; kinase still bound, per cent of control (NEK4 (human)): 89%; kinase still bound, per cent of control [4]: 89%; kinase still bound, per cent of control [5]: 100%; kinase still bound, per cent of control (PKN3 (M.tuberculosis)): 100%; kinase still bound, per cent of control (PLK2 (human)): 99%; kinase still bound, per cent of control (PRPF4B (human)): 100%; kinase still bound, per cent of control (ROCK1 (human)): 92%; kinase still bound, per cent of control (SIK3 (human)): 100%; kinase still bound, per cent of control (SNRK (human)): 100%; kinase still bound, per cent of control (STK38 (human)): 100%; kinase still bound, per cent of control (TAOK2 (human)): 72%; kinase still bound, per cent of control (TBK1 (human)): 100%; kinase still bound, per cent of control (TRPM6 (human)): 100%; kinase still bound, per cent of control (VRK2 (human)): 100% |
